Measurements published in the supplement of paper PMC10412643.

Tests used:
Conditions in all cases: CAMHB, incubation time 20 h
[1] = compound: CC(C)(O/N=C(\C(=O)N[C@@H]1C(=O)N2C(C(=O)[O-])=C(C[N+]3(CCNC(=O)c4ccc(O)c(O)c4Cl)CCCC3)CS[C@H]12)c1csc(N)n1)C(=O)O [cefiderocol]
[2] = compound: C[C@@H](O)[C@H]1C(=O)N2C(C(=O)O)=C(S[C@@H]3CN[C@H](C(=O)N(C)C)C3)[C@H](C)[C@H]12 [meropenem]
[3] = compound: CC(C)(O/N=C(\C(=O)N[C@@H]1C(=O)N2C(C(=O)[O-])=C(C[n+]3ccccc3)CS[C@H]12)c1csc(N)n1)C(=O)O [ceftazidime]

Test System | MIC ([1]; avibactam 0 µg/mL) [µg/mL] | MIC ([1]; avibactam 8 µg/mL) [µg/mL] | MIC ([2]; avibactam 0 µg/mL) [µg/mL] | MIC ([2]; avibactam 8 µg/mL) [µg/mL] | MIC ([3]; avibactam 0 µg/mL) [µg/mL] | MIC ([3]; avibactam 8 µg/mL) [µg/mL]
P. aeruginosa PAO1 | 1 | 1 | 0.5 | 0.5 | 1 | 1
B. cenocepacia VC10414 | 0.125 | 0.125 | 32 | 2 | 8 | 
B. cenocepacia VC14761 | 0.125 | 0.0625 | 4 | 1 | 2 | 2
B. multivorans C5393 | 0.25 | 0.25 | 16 | 1 | 8 | 
B. multivorans F9091687 | 0.25 | 0.25 | 0.5 | 0.5 | 2 | 2
B. vietnamiensis VC11431 | 1 | 0.125 | 16 | 1 | 32 | 2
B. cenocepacia VC14543 | 0.125 | 0.0625 | 16 | 4 | 8 | 8
P. aeruginosa 71 | 4 | 4 | 32 | 4 | > 128 | 4
B. cenocepacia G11815681 | 2 | 0.5 | 32 | 2 | 16 | 8
B. cenocepacia VC14488 | 0.25 | 0.25 | 4 | 1 |  | 2
B. dolosa LM018941 | > 4 | > 4 | 16 | 0.5 | 16 | 2
B. vietnamiensis VC18984 | > 4 | > 4 | 8 | 4 | 16 | 
B. dolosa AU0645 | > 4 | > 4 | 16 | 2 | > 128 | 8
B. multivorans LM013010 | 0.25 | 0.25 | 8 | 1 |  | 
B. contaminans 21NG609698 | 2 | 2 | 32 | 8 | 16 | 
S. maltophilia K279a | 0.125 | 0.125 | 2 | 2 | 2 | 1
B. gladioli VC14812 | 0.5 | 0.5 | 8 | 8 | 32 | 16
B. multivorans VC19694 | 1 | 1 | 8 | 4 |  | 1
P. aeruginosa 70 | 0.5 | 0.5 | 0.125 | 0.125 | 0.5 | 0.5
B. gladioli 132208 | 0.5 | 0.5 | 0.5 | 0.5 | 2 | 2
B. cenocepacia F9141525 | 0.5 | 0.5 | 32 | 4 | 128 | 16
S. maltophilia 05 41846 | 0.5 | 0.5 | > 64 | > 64 | 4 | 4
B. gladioli VC19233 | 0.25 | 0.25 | 1 | 1 |  | 2
B. cenocepacia F3071909 | > 4 | > 4 | 16 | 2 | 32 | 32
P. aeruginosa 21NE72623 | > 4 | > 4 | 0.5 | 0.125 | 16 | 2
P. aeruginosa PA14 | 1 | 1 | 0.5 | 0.25 | 2 | 2
B. multivorans V1120157 | 0.125 | 0.125 | 1 | 1 | 2 | 2
B. cenocepacia 134991 | > 4 | > 4 | 2 | 2 | 8 | 8
